A word on the IC50: it is the concentration needed to halve the response being measured.

Series [1] has as its system Madin-Darby canine kidney (MDCK) cells.
Series [2] relates to influenza A virus, strain A/jifang/90-15. Kind of series: microbe, parasite or virus in culture. The settings on record: for IC50: Influenza A virus, Influenza strain A/jifang/90-15, MDCK cells, CPE, Reed-Muench, read-out: IC50; for SI: Influenza strain A/jifang/90-15. The class given is cell-based.
For series [3], the system named is HBV DNA. The experiment in a line: In vitro anti-HBV activity: replication of HBV DNA in 2.2.15 cells (dot hybridization). The conditions noted are these: for IC50: Hepatitis B virus, read-out: DNA replication IC50; for DNA replication SI: selectivity index. The class given is cell-based, Hepatitis B virus (HBV). In a few lines: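 HBV-producing 2.2.15 cells exposed to 3-fold serial dilutions of compound (DMSO stocks diluted in medium); cells and supernatants harvested on day 8. Intracellular HBV DNA replication quantified by dot hybridization with α-32P-dCTP probe; HBsAg/HBeAg in supernatant by RIA.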

The test system of series [4] is 2.2.15 cells. The experiment in a line: Cytotoxicity (TC50) in 2.2.15 cells. Format: cell-based.
Series [5] has as its target T1, HIV-1 protease (Human immunodeficiency virus type 1 group M subtype B, UniProt P04585).
T1 construct: The genetically engineered target enzyme (HIV-1 protease, preserved at −85° C.)
The experiment in a line: Anti-HIV-1 protease activity (fluorescence labeled substrate). The class given is biochemical. In outline: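 Recombinant HIV-1 protease incubated under optimal conditions with a fluorescence-labelled substrate and test samples dissolved in DMSO or water and diluted 5-fold. Inhibition read as product fluorescence on a fluorometer; indinavir as reference.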

Series [6] has as its system HBsAg. The experiment in a line: In vitro anti-HBV activity: HBsAg production in HBV-infected 2.2.15 cells (RIA). The settings on record: for IC50: Hepatitis B virus, read-out: HBsAg IC50; for HBsAg SI: selectivity index. Format: cell-based, Hepatitis B virus (HBV). How it is done: All compounds were evaluated for their anti-HBV activities, namely the ability to inhibit the replication of HBV DNA and the production of HBsAg and HBeAg in HBV-infected 2.2.15 cells.
The samples were dissolved in DMSO for appropriate concentrations, and then each was diluted 3-fold with culture medium. The 2.2.15 cells were planted into 96-well culture plates. […] The culture supernatants and 2.2.15 cells were collected respectively on the 8th plant day. The secretion concentrations of HBsAg and HBeAg in the culture supernatants were measured by RIA on SPRIA Kit for Detection of HBsAg and HBeAg (Beijing North Institute of Biological Technology), and the replication of HBV DNA was measured by dot hybridization with a^32PdCTP (FuRui Biological Technology Ltd., China).

Values after ≈ are worked out from the molar mass of the structure shown.

`CCOC(=O)c1c(CSc2ccccc2)n(C)c2cc(Br)c(O)c(CN(C)C)c12.Cl.O` [Abidol, Ethyl 6-bromo-4-[(dimethylamino)methyl]-5-hydroxy-1-methyl-2-(phenyl-thiomethyl)-1H-indole-3-carboxylate hydrochloride monohydrate, reference compound]: the TC50 in series [1] was 62.5 µg/mL. Further, in series [2], the IC50 was determined as 23.2 µg/mL and the SI is recorded as 2.69.

The molecule `CCOC(=O)c1c(CSc2nc3ccccc3[nH]2)n(C)c2cc(Br)c(O)c(CN(C)C)c12` [Example 3, Ethyl 6-bromo-4-[(dimethylamino)methyl]-5-hydroxy-1-methyl-2-[(benzo[d]imidazol-2-yl)thiomethyl]-1H-indole-3-carboxylate] gave a TC50 in series [1] of 12.4 µg/mL (≈ 24 µM). Also, in series [2], the IC50 was determined as 7.81 µg/mL (≈ 15.1 µM) and the SI amounted to 1.59.

Consider `CCOC(=O)c1c(CSCc2ccc(F)cc2)n(C)c2cc(Br)c(O)c(CN(C)C)c12.Cl` [Example 5, Ethyl 6-bromo-4-[(dimethylamino)methyl]-5-hydroxy-1-methyl-2-[(4-fluorobenzyl)thiomethyl]-1H-indole-3-carboxylate hydrochloride], for which, in series [1], the TC50 was found to be 49.51 µg/mL. In addition, in series [2], the IC50 stood at 7.81 µg/mL and the SI stood at 6.34.

Molecule `CCOC(=O)c1c(CSCc2ccccc2F)n(C2CC2)c2cc(Br)c(O)c(CN3CCCC3)c12.Cl` [Example 14, Ethyl 6-bromo-1-cyclopropyl-5-hydroxy-4-(1-pyrrolidinylmethyl)-2-[(2-fluorobenzyl)thiomethyl]-1H-indole-3-carboxylate hydrochloride] yielded a TC50 in series [1] of 2.48 µg/mL. In addition, in series [2], the IC50 amounted to 0.92 µg/mL and the SI is 2.7.

For the molecule `CCOC(=O)c1c(CSc2nc3ccc(OC)cc3[nH]2)n(C)c2cc(Br)c(O)c(CN3CCOCC3)c12` [Example 25, Ethyl 6-bromo-5-hydroxy-1-methyl-4-(morpholinomethyl)-2-[(5-methoxybenzo[d]imidazol-2-yl)thiomethyl]-1H-indole-3-carboxylate], the TC50 in series [1] amounted to 125.0 µg/mL (≈ 212 µM). Besides, in series [2], the concentration for half-maximal inhibition (IC50) worked out at 22.1 µg/mL (≈ 37.5 µM) and the SI is recorded as 5.66.

`CCOC(=O)c1c(CSCc2ccccc2)n(C2CC2)c2cc(Br)c(O)c(Cn3ccnc3)c12` [Example 91, Ethyl 6-bromo-1-cyclopropyl-5-hydroxy-4-[(1-imidazolyl)methyl]-2-(benzylthiomethyl)-1H-indole-3-carboxylate] had a TC50 in series [1] of 293.37 µg/mL (≈ 543 µM). Also, in series [2], the IC50 came out at 15.6 µg/mL (≈ 28.9 µM) and the SI turned out to be 18.77.

In turn, `CCOC(=O)c1c(CSCc2ccc(F)cc2)n(C)c2cc(Br)c(O)c(Cn3ccnc3)c12` [Example 92, Ethyl 6-bromo-5-hydroxy-4-[(1-imidazolyl)methyl]-1-methyl-2-[(4-fluorobenzyl)thiomethyl]-1H-indole-3-carboxylate] had a TC50 in series [1] of 18.34 µg/mL (≈ 34.4 µM). Besides, in series [2], the IC50 came to 7.81 µg/mL (≈ 14.7 µM) and the SI is 2.35.

`CCOC(=O)c1c(CSCc2ccc(F)cc2)n(C)c2cc(Br)c(O)c(Cn3ccnc3C)c12` [Example 100, Ethyl 6-bromo-5-hydroxy-1-methyl-4-[(2-methyl-1-imidazolyl)methyl]-2-[(4-fluorobenzyl)thiomethyl]-1H-indole-3-carboxylate]: the TC50 in series [1] worked out at 49.61 µg/mL (≈ 90.8 µM). Further, in series [2], the IC50 stood at 22.1 µg/mL (≈ 40.4 µM) and the SI came out at 2.24.

Molecule `CCOC(=O)c1c(CSCc2ccccc2)n(C)c2cc(Br)c(O)c(CNC(=N)N)c12` [Example 104, Ethyl 6-bromo-4-(guanidinylmethyl)-5-hydroxy-1-methyl-2-(benzylthiomethyl)-1H-indole-3-carboxylate] displayed a TC50 in series [1] of 148.65 µg/mL (≈ 294 µM). In series [2], the IC50 was found to be 13.3 µg/mL (≈ 26.4 µM) and the SI was 11.16.

Regarding `CCOC(=O)c1c(C[S+]([O-])Cc2ccccc2)n(C2CC2)c2cc(Br)c(O)c(Cn3ccnc3)c12` (stereo not drawn) [Example 126, Ethyl 6-bromo-1-cyclopropyl-5-hydroxy-4-[(1-imidazolyl)methyl]-2-(benzylsulfinylmethyl)-1H-indole-3-carboxylate], the IC50 came out at 6.36 µg/mL (≈ 11.4 µM) in series [3] and 11.1 µg/mL (≈ 19.9 µM) in series [2]. Also, the “DNA replication SI” value in series [3] came out at 5.60. Also, the TC50 came out at 44.19 µg/mL (≈ 79.4 µM) in series [1] and 35.61 µg/mL (≈ 64 µM) in series [4]. Further, the SI in series [2] stood at 4.0.

In turn, `CCOC(=O)c1c(C[S+]([O-])c2ccc(F)cc2)n(C)c2cc(Br)c(O)c(CNC(=N)N)c12` (stereo not drawn) [Example 153, Ethyl 6-bromo-4-(guanidinylmethyl)-5-hydroxy-1-methyl-2-[(4-fluorophenyl)sulfinylmethyl]-1H-indole-3-carboxylate] gave an IC50 in series [5] of 133 µM. For the same molecule, in series [5] (sample concentration 0.5 ug/ml), the “inhibition ratio at 0.5 ug/ml” value came out at 7.2. In addition, in series [5] (sample concentration 2.0 ug/ml), the “inhibition ratio at 2.0 ug/ml” value was determined as 14.7. Further, in series [5] (sample concentration 10 ug/ml), the “inhibition ratio at 10 ug/ml” value is reported as 11.2. In series [5] (sample concentration 50 ug/ml), the “inhibition ratio at 50 ug/ml” value came to 24.1. Besides, in series [5] (sample concentration 250 ug/ml), the “inhibition ratio at 250 ug/ml” value turned out to be 75.3. For the same molecule, in series [3], the IC50 is 29.3 µg/mL (≈ 55.8 µM) and the “DNA replication SI” value was 4.27. In series [4], the TC50 is 125 µg/mL (≈ 238 µM). Also, in series [6], the half-maximal inhibitory concentration (IC50) was 62.2 µg/mL (≈ 118 µM) and the “HBsAg SI” value worked out at 2.01.

Regarding `CCOC(=O)c1c(CSc2cccc(F)c2)n(C)c2cc(Br)c(O)c(Cn3ccnc3)c12` [Example 175, Ethyl 6-bromo-5-hydroxy-4-[(1-imidazolyl)methyl]-1-methyl-2-[(3-fluorophenyl)thiomethyl]-1H-indole-3-carboxylate], in series [3], the IC50 is 4.65 µg/mL (≈ 8.97 µM) and the “DNA replication SI” value stood at 7.66. Also, the TC50 in series [4] turned out to be 35.61 µg/mL (≈ 68.7 µM). Further, in series [6], the half-maximal inhibitory concentration (IC50) stood at 2.45 µg/mL (≈ 4.73 µM) and the “HBsAg SI” value was determined as 14.53.

In series [1], `CCOC(=O)c1c(CSCc2ccccc2)n(C)c2cc(Br)c(O)c(Cn3ccnc3)c12` [Example 176, Ethyl 6-bromo-5-hydroxy-4-[(1-imidazolyl)methyl]-1-methyl-2-(benzylthiomethyl)-1H-indole-3-carboxylate] showed a TC50 of 125 µg/mL (≈ 243 µM). Moreover, in series [2], the IC50 is 15.6 µg/mL (≈ 30.4 µM) and the SI is 8.0.

As to `CCOC(=O)c1c(C[S+]([O-])c2ccc(C(F)(F)F)cc2)n(C)c2cc(Br)c(O)c(Cn3ccnc3)c12` (stereo not drawn) [Example 177, Ethyl 6-bromo-5-hydroxy-4-[(1-imidazolyl)methyl]-1-methyl-2-[(4-trifluoromethylphenyl)sulfinylmethyl]-1H-indole-3-carboxylate], in series [3], the IC50 worked out at 15.9 µg/mL (≈ 27.2 µM) and the “DNA replication SI” value was found to be 6.72. This molecule also yielded a TC50 in series [4] of 106.83 µg/mL (≈ 183 µM). In series [6], the IC50 was 31.5 µg/mL (≈ 53.8 µM) and the “HBsAg SI” value is listed as 3.39.

For `CCOC(=O)c1c(CS(=O)(=O)Cc2ccccc2)n(C2CC2)c2cc(Br)c(O)c(Cn3ccnc3C)c12` [Example 178, Ethyl 6-bromo-1-cyclopropyl-5-hydroxy-4-[(2-methyl-1-imidazolyl)methyl]-2-(benzylsulfonylmethyl)-1H-indole-3-carboxylate], the TC50 in series [1] is 78.75 µg/mL (≈ 134 µM). For the same molecule, in series [2], the IC50 turned out to be 7.81 µg/mL (≈ 13.3 µM) and the SI was 10.08.

In series [1], `CCOC(=O)c1c(CSCc2ccccc2F)n(C2CC2)c2cc(Br)c(O)c(Cn3cncn3)c12` [Example 186, Ethyl 6-bromo-1-cyclopropyl-5-hydroxy-4-[(1H-1,2,4-triazol-1-yl)methyl]-2-[(2-fluorobenzyl)thiomethyl]-1H-indole-3-carboxylate] showed a TC50 of 62.5 µg/mL (≈ 112 µM). In addition, in series [2], the concentration for half-maximal inhibition (IC50) stood at 9.17 µg/mL (≈ 16.4 µM) and the SI is given as 6.82.

For `CCOC(=O)c1c(CSCc2ccc(F)cc2)n(C)c2cc(Br)c(O)c(Cn3cncn3)c12` [Example 187, Ethyl 6-bromo-5-hydroxy-1-methyl-4-[(1H-1,2,4-triazol-1-yl)methyl]-2-[(4-fluorobenzyl)thiomethyl]-1H-indole-3-carboxylate], in series [1], the TC50 is 44.19 µg/mL (≈ 82.8 µM). Further, in series [2], the half-maximal inhibitory concentration (IC50) was 26.6 µg/mL (≈ 49.9 µM) and the SI is on record as 1.66.

Turning to `CCOC(=O)c1c(CSCc2ccccc2)n(C2CC2)c2cc(Br)c(O)c(CNC(=N)N)c12` [Example 188, Ethyl 6-bromo-1-cyclopropyl-4-(guanidinylmethyl)-5-hydroxy-2-(benzylthiomethyl)-1H-indole-3-carboxylate], in series [1], the TC50 amounted to 39.37 µg/mL (≈ 74.1 µM). In series [2], the IC50 was found to be 9.85 µg/mL (≈ 18.5 µM) and the SI was 4.0.

For the origin of these results see patent US7960427B2, “5-hydroxyindole-3-carboxylate derivatives and uses thereof” (priority 2004, dated 2011).
